Results: ChEMBL document CHEMBL4433253, “Development of a novel inducer for EBV lytic therapy” (Bioorg Med Chem Lett, 2019)
Converted amounts (≈) assume the structure as drawn. The source made the active and inactive calls. The calls are words filed in the database; no cut-off is given here.

Legend:
Human gammaherpesvirus 4 [1] = test: Reactivation of latent EBV infected in human MUTU-I cells incubated for 48 hrs by steady-glo luciferase reporter assay relative to C60; format: functional; set-up: concentration or dose not given beside the values
Human gammaherpesvirus 4 [2] = test: Reactivation of latent EBV infected in human MUTU-I cells incubated for 48 hrs by steady-glo luciferase reporter assay; format: functional, organism-based; settings: human gammaherpesvirus 4, MUTU-I
[3] = Half life in human liver microsomes; format: ADME, Microsome
[4] = Aqueous solubility of compound in pH 7.4 PBS buffer; format: physicochemical
[5] = Stability in human plasma; format: ADME, cell-free; settings: read-out: Stability
[6] = Stability in mouse plasma; format: ADME, cell-free; settings: read-out: Stability
[7] = Half life in mouse liver microsomes; format: ADME, Microsome
Human gammaherpesvirus 4 [8] = test: Reactivation of latent EBV in human AGS cells xenografted NSG mouse assessed as increase in BZLF1 protein level in tumor mass at 25 mg/kg, ip qd for 3 days starting from 35 days post infection by immunoblot analysis
Human gammaherpesvirus 4 [9] = test: Reactivation of latent EBV in human SNU-719 cells xenografted NSG mouse assessed as increase in BZLF1 protein level in tumor mass at 30 mg/kg, ip qd for 4 days starting from 28 days post infection by immunoblot analysis; format: functional, organism-based

With COC(=O)c1ccccc1NC(=O)N1CCc2c([nH]c3ccccc23)C1c1ccc(OC)cc1 (centres undefined) the Activity (Human gammaherpesvirus 4 [1]) was 14%.

Compound COC(=O)c1sccc1NC(=O)N1CCc2c([nH]c3ccc(OC)cc23)C1c1ccc(C)cc1 (centres undefined) has an EC50 (Human gammaherpesvirus 4 [2]) of 576 nM.

Compound COc1ccc(C2c3[nH]c4ccc(Cl)cc4c3CCN2C(=O)Nc2cccc(OC)c2)cc1 (centres undefined) has an Activity (Human gammaherpesvirus 4 [1]) of 43%.

COc1ccc(C2c3[nH]c4ccc(Cl)cc4c3CCN2C(=O)Nc2ccccc2OC)cc1 (centres undefined) showed an Activity (Human gammaherpesvirus 4 [1]) of 79% and an EC50 (Human gammaherpesvirus 4 [2]) of 169 nM.

In the case of COc1ccc(C(=O)N2CCc3c([nH]c4ccc(Cl)cc34)C2c2ccc(OC)cc2)cc1 (centres undefined), the EC50 (Human gammaherpesvirus 4 [2]) is reported as 154 nM.

Work on COC(=O)c1ccccc1NC(=O)N1CCc2c([nH]c3ccc(Cl)cc23)C1c1ccc(OC)cc1 (centres undefined) yielded a t1/2 [3] of 77.8 min, a solubility [4] of under 10 µg/mL and a half-life [5] of over 360 min. For the same compound, the half-life [6] was over 360 min, the t1/2 [7] was over 90 min and the EC50 (Human gammaherpesvirus 4 [2]) was 157 nM.

With COc1ccc(C2c3[nH]c4ccc(Cl)cc4c3CCN2C(=O)c2ccccc2C(F)(F)F)cc1 (centres undefined) the EC50 (Human gammaherpesvirus 4 [2]) was 1580 nM.

In the case of COc1ccc(C2c3[nH]c4ccc(Cl)cc4c3CCN2C(=O)c2ccccc2Cl)cc1 (centres undefined), the EC50 (Human gammaherpesvirus 4 [2]) is reported as 2430 nM.

With COc1ccc(C2c3[nH]c4ccc(Cl)cc4c3CCN2C(=O)c2cccc(CN3CCOCC3)c2)cc1 (centres undefined) the EC50 (Human gammaherpesvirus 4 [2]) was 277 nM.

Work on O=C(c1cccc(CN2CCOCC2)c1)N1CCc2c([nH]c3ccc(Cl)cc23)C1c1ccc(Cl)cc1 (centres undefined) yielded an EC50 (Human gammaherpesvirus 4 [2]) of 277 nM.

With COc1ccc(C2c3[nH]c4ccc(Cl)cc4c3CCN2C(=O)c2ccc(Cl)cc2)cc1 (centres undefined) the EC50 (Human gammaherpesvirus 4 [2]) was 228 nM.

COc1ccc(C2c3[nH]c4ccc(Cl)cc4c3CCN2C(=O)Nc2ccc(OC)cc2OC)cc1 (centres undefined) gave an EC50 (Human gammaherpesvirus 4 [2]) of 1130 nM.

Compound COc1ccc(NC(=O)N2CCc3c([nH]c4ccc(Cl)cc34)C2c2ccc(OC)cc2)cc1 (centres undefined) has an Activity (Human gammaherpesvirus 4 [1]) of 31%.

In the case of COc1ccc(C2c3[nH]c4ccc(Cl)cc4c3CCN2S(=O)(=O)c2ccc(OC)cc2)cc1 (centres undefined), the EC50 (Human gammaherpesvirus 4 [2]) is reported as 8030 nM.

For COC(=O)c1cccc(NC(=O)N2CCc3c([nH]c4ccc(Cl)cc34)C2c2ccc(OC)cc2)c1 (centres undefined), the Activity (Human gammaherpesvirus 4 [1]) was 17%.

In the case of COc1ccc(C2c3[nH]c4ccc(Cl)cc4c3CCN2C(=O)c2ccccc2OC)cc1 (centres undefined), the EC50 (Human gammaherpesvirus 4 [2]) is reported as 4270 nM.

With COCCOCCOCCOc1ccc(C2c3[nH]c4ccc(Cl)cc4c3CCN2C(=O)Nc2ccccc2C(=O)OC)cc1 (centres undefined) the Activity (Human gammaherpesvirus 4 [8]) was “Active” and the Activity (Human gammaherpesvirus 4 [9]) was “Active”.

COc1ccc(C2c3[nH]c4ccccc4c3CCN2C(=O)Nc2ccccc2OC)cc1 (centres undefined) showed an Activity (Human gammaherpesvirus 4 [1]) of 15%.

With COc1cccc(C(=O)N2CCc3c([nH]c4ccc(Cl)cc34)C2c2ccc(O)cc2)c1 (centres undefined) the Activity (Human gammaherpesvirus 4 [9]) was “Active” and the EC50 (Human gammaherpesvirus 4 [2]) was 310 nM.

With COCCOCCOCCOc1ccc(C2c3[nH]c4ccc(Cl)cc4c3CCN2C(=O)Nc2ccccc2Cl)cc1 (centres undefined) the Activity (Human gammaherpesvirus 4 [8]) was “Active” and the Activity (Human gammaherpesvirus 4 [9]) was “Active”.

CCOC(=O)c1ccccc1NC(=O)N1CCc2c([nH]c3ccc(OC)cc23)C1c1ccc(C)cc1 (centres undefined) showed an EC50 (Human gammaherpesvirus 4 [2]) of 1080 nM.

COc1ccc(C2NCCc3c2[nH]c2ccc(Cl)cc32)cc1 (centres undefined) gave an EC50 (Human gammaherpesvirus 4 [2]) of 215 nM.

Work on COc1ccc(C2c3[nH]c4ccc(Cl)cc4c3CCN2S(=O)(=O)c2ccccc2OC)cc1 (centres undefined) yielded an EC50 (Human gammaherpesvirus 4 [2]) of 4010 nM.

Work on COc1ccc(C2c3[nH]c4ccc(Cl)cc4c3CCN2C(=O)c2ccc(C(F)(F)F)cc2)cc1 (centres undefined) yielded an EC50 (Human gammaherpesvirus 4 [2]) of 434 nM.

COc1ccc(C2c3[nH]c4ccc(Cl)cc4c3CCN2C(=O)c2cccc(OC)c2)cc1 (centres undefined) showed a t1/2 [3] of over 90 min, a solubility [4] of 166 µg/mL (≈ 371 µM) and a half-life [5] of over 360 min. It also gave a half-life [6] of over 360 min, a t1/2 [7] of 31 min and an EC50 (Human gammaherpesvirus 4 [2]) of 168 nM.
